Source: patent US10501502B2, “Allophycocyanin alpha-subunit evolved labeling proteins (smURFPs)” (The Regents of the University of California, priority 2016, dated 2019)
“Also recorded” adds a separate entry of the source.

Columns and labels:
HEK293A cells = experiment: Fluorescence imaging of FPs in HEK293A cells with chromophore addition or HO-1 expression; format: cell-based
Excerpt: smURFP codons were optimized for human cell expression, and the gene was created by GenScript. smURFP, TDsmURFP (created from mammalian-optimized smURFP), IFP1.4 (mammalian-optimized form^35), IFP2.0 (mammalian-optimized form^46), and iRFP713 (mammalian-optimized form^36) were PCR amplified using Phusion High-Fidelity DNA Polymerase (NEB) with primers containing 5′ HindIII and 3′ XhoI restriction enzyme sites. HindIII-HF and XhoI (NEB)-digested PCR fragments were gel purified (Zymoclean Gel DNA Recovery Kit) and were ligated (T4 DNA Ligase, Life Technologies) into a similarly digested pCDNA3-IRES-eGFP vector (bicistronic to express two FPs in the same cell). For creation of HO-1-expressing mammalian vec-tors, the Synechocystis HO-1 was used, and the codons were not optimized for mammalian expression. Synechocystis HO-1 was directly amplified from the pBAD vector using primers containing 5′ BsiWI and 3′ XbaI restriction enzyme sites. pCDNA3 smURFP, TDsmURFP, IFP1.4, IFP2.0, or iRFP713-IRES-eGFP vectors were digested with BsiWI and XbaI (NEB), dephosphorylated (SAP, Roche), gel purified (Zymoclean Gel DNA Recovery Kit), and ligated (T4 DNA Ligase, Life Technologies) with similarly digested, purified HO-1 PCR fragment. For creation of smURFP fusions, smURFP was PCR amplified using Phusion High-Fidelity DNA Polymerase (NEB) with primers containing 5′ AgeI and 3′ NotI restriction enzyme sites for N-terminal fusions or with primers containing 5′ AgeI and 3′ BspEI restriction enzyme sites for C-terminal fusions. mGeos2-VEL-ManII-N-10 (Addgene 57551) and Dronpa-PDHA1-N-10 (Addgene 57292) vectors were digested with AgeI and NotI (NEB) and mCherry-αTubulin-C-18 (Addgene 55148) and tdTomato-LaminB1-10 (Addgene 58107) were digested with AgeI and BspEI, dephosphorylated (SAP, Roche), gel purified (Zymoclean Gel DNA Recovery Kit), and ligated (T4 DNA Ligase, Life Technologies) with similarly digested, purified smURFP PCR fragment. HEK293A (Invitrogen, Life Technologies), HT1080 (ATCC), and PC3 (ATCC) cells were grown in Dulbecco's Modified Eagle's medium (DMEM, Corning), supplemented with 10% FBS (Atlanta Biologicals)+1×penicillin—streptomycin (Fisher Scientific), which is referred to as growth media, on poly-D-lysine-coated glass-bottom culture dishes (MatTek, No. P35G-0-14-C). The HEK cell line is listed in the ICLAC and NCBI biosample databases and is commonly misidentified as the HeLa cell line. For expression of exogenous fluorescent proteins, there is no problem if there is a contaminating cell line because no endogenous biology or therapeutic results are being determined. HEK293A cells were purchased from Invitrogen (Life Technologies), and all experiments are derived from the same expanded frozen stock without cell line authentication or mycoplasma detection. Cells were transfected using 2 μg of circular DNA+5 μl Lipofectamine 2000 (Life Technologies) in 2 ml Opti-MEM (Life Technologies) for 4-5 h, transfection media was discarded, and prewarmed growth media was added. Chromophores (5 mM in DMSO) were added at indicated concentrations to growth media, warmed for 10-15 min at 37° C., and added to cells. For multiple timepoints, incubations were staggered to maintain equivalent incubation. Prior to imaging, cells were washed 1×2 ml growth media, 2×2 ml imaging solution, and imaged in 2 ml imaging solution. Fluorescence imaging was performed on a Zeiss Axiovert 200M inverted microscope controlled by SlideBook software. FPs were imaged with the following settings: eGFP, EX/EM=495(10)/535(25) nm, tdTomato EX/EM=540(25)/595(50) nm; mCherry and mCardinal, EX/EM=580(20)/653(95) nm; smURFP and TDsmURFP, EX/EX=628(40)/680(30) nm; and IFP1.4, IFP2.0, and iRFP713, EX/EM=665(45)/725(50) nm. […]

[1] = BV or BVMe2 concentration in plasma, in vitro; settings: 10 μM, 37° C., up to 1,440 min
Description: Whole blood was collected via abdominal aorta and placed in tubes with lithium heparin (BD, No. 365971) on ice. Tubes were centrifuged to remove red blood cells, and plasma was stored on ice for 30 min. Clarified plasma was combined and aliquoted into 9×70 μl aliquots and placed on ice. The following nine experiments were performed: starting plasma (1) and plasma+10 μM BV (2-5) or BVMe2(6-9) at time 0 at 4° C. and 15, 60, and 1,440 min at 37° C. Reactions were stopped by freezing at −80° C. Plasma samples were thawed, diluted 4× with cold 50% ACN, 48% water (H2O), and 2% acetic acid, and centrifuged for 14 min at 4° C. Reverse-phase high performance liquid chromatography (HPLC) was performed on an Agilent 1100 Series HPLC on a Phenomenex Luna C18(2) reverse-phase column 100 Å, 250 cm×21.20 mm I.D. 10 μm reverse-phase column (00G-4253-P0 AX), with a 21 min, 10-90% H2O:ACN (0.05% trifluoroacetic acid, TFA) gradient and a flow rate of 1 ml/min into a diode array detector and MSD-Ion Trap (Agilent LC/MSD trap XCT).

[2] = FP purification and fluorescence characterization in vitro (spectra, extinction coefficient, quantum yield); format: physicochemical
Description: FP genes were expressed on a pBAD vector (Life Technologies) with a polyhistidine tag on the C terminus, cells were lysed with B-PER (Thermo Scientific), and purified using Ni-NTA (Qiagen) puri-fication. PCB (HO-1+PcyA) and BV (HO-1) incorporation in Escherichia coli was performed simultaneously during constitu-tively active FP expression. Extinction coefficient was determined by PCB or BV absorbance as described35,36 (Table 3, smURFP+BV and TDsmURFP+BV, and Table 2) or calculated for the apoproteins by determining the protein concentration by the BCA protein assay (Pierce), and a specific chromo-phore concentration was added (specified in the Purification of FP lacking chromophore and in vitro chromophore incorporation section) to get 1 and 2 chromophore species (Table 5, not including (Escherichia coli)). When FP chromophore (PCB or BV) was expressed in Escherichia coli, the PCB and BV Q band had absorbance that overlapped with detection of BCA or Bradford assay of 562 nm and 592 nm, respectively. We used the previously published protocols35,36, where there was no change of the BV absorbance at 390 nm when free in solution or attached to the FP. smURFP+BV denaturation with 1 M urea caused no change in the BV absorbance at 390 nm, but the Q band was reduced ˜20-fold. Therefore, the extinction coefficient of BV at 390 nm was used to calculate the concentration of holoprotein (FP+PCB or BV) concentration.
EX and EM spectra were obtained using SPEX Fluorolog fluorometer (Horiba). Absorbance spectra were obtained using UV-VIS Spectrophotometer Cary Eclipse (Varian) or UV-2700 (Shimadzu). Quantum yield was determined relative to Cy5. Incorporation rates of BV on 0.5 μM smURFP was performed by addition of smURFP to PBS alone or with 20% fetal bovine serum (FBS) and mixed by pipetting in a quartz cuvette. Chromophore was added last, mixed by pipetting, and fluorescence was recorded using SPEX Fluorolog fluorometer (Horiba). Photobleaching was characterized on bubbles of purified FP or Cy5 within mineral oil using light from a 150 W xenon arc lamp with 100% light through EX/EM=628(40)/680(30) nm for smURFP, TDsmURFP, and Cy5 or EX/EM=665 (45)/725 (50) nm for IFP 1.4 focused with a 40×, 1.2 numerical aperture C-Apochromat oil-immersion lens on a Zeiss Axiovert 200M inverted microscope. Photobleaching times were normalized to reflect an initial illumination intensity producing 1,000 photons per fluorescent molecule per second as previously described^37.
HO-1 was removed by digesting the pBAD vector (Life Technology) with MscI and PmeI (NEB). smURFP and TDsmURFP were expressed and purified as described above. No chromophore was present on smURFP and TDsmURFP (confirmed by UV, fluorescence imaging, and MS). For predominant fluorescent species+2 chromophores, a ten-fold excess of chromophore was added to smURFP and TDsmURFP. For predominant fluorescent species+1 chromophore, a quarter concentration of chromophore was added to smURFP and TDsmURFP. Chromophore was added in PBS+10% FBS at 37° C. overnight. smURFP+chromophore and TDsmURFP+chromophore were purified using NiNTA (Qiagen) to remove excess or noncovalently attached chromophore.

C=CC1=C(C)/C(=C/C2=NC(=C\c3[nH]c(/C=C4\NC(=O)C(C)=C4C=C)c(C)c3CCC(=O)O)/C(CCC(=O)O)=C2C)NC1=O [BV, biliverdin, reference compound]
fluorescence with 25 μM BV at pH 6.4 relative to BV at pH 7.5 (HEK293A cells; 3.5 h): increased fluorescence three-fold | fluorescence with protonated BV (pH 6.4) relative to BVMe2 (HEK293A cells; pH 6.4): five-fold less | stability in plasma in vitro [1]: slower degradation; also recorded: significantly degraded | quantum yield (QY) [2]: 0.013%
